# Values quoted from earlier work as cited in patent publication US8063151B2, “Methods for manufacturing copolymers having 1-methyl-2-methoxyethyl moieties and use of same” (Abbott Laboratories, priority 2006, dated 2011).
# Conditions: comparison with ethanol
compound,measurement,value
COCC(C)O (stereo not shown) [1-methoxy-2-propanol],toxicity compared with other solvents,in a range more similar to ethanol
